Measurements reported in BindingDB's records for doi:10.1021/cc050016r (Uppsala University, 2005).
Several values for one entry are separate records, joined by “and”; a condition that tells them apart may be missing. Identical values can stand only once.

The molecules below were run against HIV-1 protease (Human immunodeficiency virus, UniProt Q9YQ34) (assay: Fluorometric Assay).
Source text: Fluorometric assay using HIV-1 protease.

HIV-1 protease, sequence (Q9YQ34 whole entry): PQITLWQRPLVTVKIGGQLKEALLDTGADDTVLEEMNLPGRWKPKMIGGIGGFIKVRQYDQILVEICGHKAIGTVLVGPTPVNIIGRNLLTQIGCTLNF

| SMILES | Ki |
| --- | --- |
| CNC(=O)[C@@H](NC(=O)[C@H](OCc1ccccc1C(=O)N1CCc2ccccc21)[C@H](O)[C@@H](O)[C@@H](OCc1ccccc1C(=O)N1CCc2ccccc21)C(=O)N[C@H](C(=O)NC)C(C)C)C(C)C [HIV-1 Protease Inhibitor, 6j] | 800 nM |
| CNC(=O)[C@@H](NC(=O)[C@H](OCc1ccccc1C(=O)N1CCCC1)[C@H](O)[C@@H](O)[C@@H](OCc1ccccc1C(=O)N1CCCC1)C(=O)N[C@H](C(=O)NC)C(C)C)C(C)C [HIV-1 Protease Inhibitor, 6d] | 400 nM |
| CNC(=O)[C@@H](NC(=O)[C@H](OCc1ccccc1C(=O)Nc1nccs1)[C@H](O)[C@@H](O)[C@@H](OCc1ccccc1C(=O)Nc1nccs1)C(=O)N[C@H](C(=O)NC)C(C)C)C(C)C [HIV-1 Protease Inhibitor, 6g] | 700 nM |
| CNC(=O)[C@@H](NC(=O)[C@H](OCc1cccc(C(=O)N2CCOCC2)c1)[C@H](O)[C@@H](O)[C@@H](OCc1cccc(C(=O)N2CCOCC2)c1)C(=O)N[C@H](C(=O)NC)C(C)C)C(C)C [HIV-1 Protease Inhibitor, 7d] | 300 nM |
| CNC(=O)[C@@H](NC(=O)[C@H](OCc1ccccc1C(=O)Nc1cccc2cnccc12)[C@H](O)[C@@H](O)[C@@H](OCc1ccccc1C(=O)Nc1cccc2cnccc12)C(=O)N[C@H](C(=O)NC)C(C)C)C(C)C [HIV-1 Protease Inhibitor, 6n] | 800 nM |
| CNC(=O)[C@@H](NC(=O)[C@H](OCc1ccccc1C(=O)N1CCOCC1)[C@H](O)[C@@H](O)[C@@H](OCc1ccccc1C(=O)N1CCOCC1)C(=O)N[C@H](C(=O)NC)C(C)C)C(C)C [HIV-1 Protease Inhibitor, 6e] | > 5000 nM |
| CNC(=O)[C@@H](NC(=O)[C@H](OCc1ccccc1C(=O)NC(C)(C)C)[C@H](O)[C@@H](O)[C@@H](OCc1ccccc1C(=O)NC(C)(C)C)C(=O)N[C@H](C(=O)NC)C(C)C)C(C)C [HIV-1 Protease Inhibitor, 6b] | 700 nM |
| CNC(=O)[C@@H](NC(=O)[C@H](OCc1cccc(C(=O)N2CCCC2)c1)[C@H](O)[C@@H](O)[C@@H](OCc1cccc(C(=O)N2CCCC2)c1)C(=O)N[C@H](C(=O)NC)C(C)C)C(C)C [HIV-1 Protease Inhibitor, 7c] | 200 nM |
| CCCCNC(=O)c1ccccc1CO[C@@H](C(=O)N[C@H](C(=O)NC)C(C)C)[C@H](O)[C@@H](O)[C@@H](OCc1ccccc1C(=O)NCCCC)C(=O)N[C@H](C(=O)NC)C(C)C [HIV-1 Protease Inhibitor, 6c] | 600 nM |
| CNC(=O)[C@@H](NC(=O)[C@H](OCc1ccccc1C(=O)NC1CCCCC1)[C@H](O)[C@@H](O)[C@@H](OCc1ccccc1C(=O)NC1CCCCC1)C(=O)N[C@H](C(=O)NC)C(C)C)C(C)C [HIV-1 Protease Inhibitor, 6f] | 200 nM and 196 nM |
| CCOC(=O)c1ccc(NC(=O)c2ccccc2CO[C@@H](C(=O)N[C@H](C(=O)NC)C(C)C)[C@H](O)[C@@H](O)[C@@H](OCc2ccccc2C(=O)Nc2ccc(C(=O)OCC)cc2)C(=O)N[C@H](C(=O)NC)C(C)C)cc1 [HIV-1 Protease Inhibitor, 6k] | 200 nM |

Second part, the molecule after the results:

| Ki | SMILES |
| --- | --- |
| > 5000 nM | CNC(=O)c1ccccc1CO[C@@H](C(=O)N[C@H](C(=O)NC)C(C)C)[C@H](O)[C@@H](O)[C@@H](OCc1ccccc1C(=O)NC)C(=O)N[C@H](C(=O)NC)C(C)C [HIV-1 Protease Inhibitor, 6a] |
| 7 nM | CNC(=O)[C@@H](NC(=O)[C@H](OCc1cccc(C(=O)Nc2ccccc2)c1)[C@H](O)[C@@H](O)[C@@H](OCc1cccc(C(=O)Nc2ccccc2)c1)C(=O)N[C@H](C(=O)NC)C(C)C)C(C)C [HIV-1 Protease Inhibitor, 7f] |
| 2 nM and 2.9 nM | CNC(=O)[C@@H](NC(=O)[C@H](OCc1cccc(C(=O)NCc2ccccc2)c1)[C@H](O)[C@@H](O)[C@@H](OCc1cccc(C(=O)NCc2ccccc2)c1)C(=O)N[C@H](C(=O)NC)C(C)C)C(C)C [HIV-1 Protease Inhibitor, 7g] |
| 20 nM | CNC(=O)[C@@H](NC(=O)[C@H](OCc1cccc(C(=O)NC2CCCCC2)c1)[C@H](O)[C@@H](O)[C@@H](OCc1cccc(C(=O)NC2CCCCC2)c1)C(=O)N[C@H](C(=O)NC)C(C)C)C(C)C [HIV-1 Protease Inhibitor, 7e] |
| 20 nM | CNC(=O)c1cccc(CO[C@@H](C(=O)N[C@H](C(=O)NC)C(C)C)[C@H](O)[C@@H](O)[C@@H](OCc2cccc(C(=O)NC)c2)C(=O)N[C@H](C(=O)NC)C(C)C)c1 [HIV-1 Protease Inhibitor, 7a] |
| 2000 nM and 1330 nM | CNC(=O)[C@@H](NC(=O)[C@H](OCc1ccccc1C(=O)NCc1ccccc1)[C@H](O)[C@@H](O)[C@@H](OCc1ccccc1C(=O)NCc1ccccc1)C(=O)N[C@H](C(=O)NC)C(C)C)C(C)C [HIV-1 Protease Inhibitor, 6m] |
| 7 nM and 20 nM | CNC(=O)[C@@H](NC(=O)[C@H](OCc1ccccc1C(=O)Nc1ccccc1)[C@H](O)[C@@H](O)[C@@H](OCc1ccccc1C(=O)Nc1ccccc1)C(=O)N[C@H](C(=O)NC)C(C)C)C(C)C [HIV-1 Protease Inhibitor, 6h] |
| 3 nM and 6.5 nM | CCCCNC(=O)c1cccc(CO[C@@H](C(=O)N[C@H](C(=O)NC)C(C)C)[C@H](O)[C@@H](O)[C@@H](OCc2cccc(C(=O)NCCCC)c2)C(=O)N[C@H](C(=O)NC)C(C)C)c1 [HIV-1 Protease Inhibitor, 7b] |
| 70 nM and 118 nM | CNC(=O)[C@@H](NC(=O)[C@H](OCc1ccccc1C(=O)Nc1cccnc1)[C@H](O)[C@@H](O)[C@@H](OCc1ccccc1C(=O)Nc1cccnc1)C(=O)N[C@H](C(=O)NC)C(C)C)C(C)C [HIV-1 Protease Inhibitor, 6i] |
| 6 nM and 8.5 nM | CNC(=O)[C@@H](NC(=O)[C@H](OCc1ccccc1C(=O)Nc1cccc(Cl)c1)[C@H](O)[C@@H](O)[C@@H](OCc1ccccc1C(=O)Nc1cccc(Cl)c1)C(=O)N[C@H](C(=O)NC)C(C)C)C(C)C [HIV-1 Protease Inhibitor, 6l] |
